Experimental data from ChEMBL document CHEMBL4359853, “Antiproliferative activity of (R)-4'-methylklavuzon on hepatocellular carcinoma cells and EpCAM+/CD133+ cancer stem cells via SIRT1 and Exportin-1 (CRM1) inhibition” (Eur J Med Chem, 2019).
Active and inactive are the calls of the source. No cut-off for these calls is given here.

Tests used:
[1] = test system: Huh-7; experiment: Induction of apoptosis in human HuH7 negative EpCAM/CD133 cells assessed as change in cell number at 0.1 to 10 uM measured after 48 hrs by 2D microscopic analysis; format: functional, cell-based
[2] = test system: Huh-7; experiment: Cell cycle arrest in human HuH7 negative EpCAM/CD133 cells assessed as increase in accumulation at G2 phase at 10 uM measured after 48 hrs by propidium iodide staining based flow cytometry analysis; format: functional
[3] = test system: Huh-7; experiment: Cytotoxicity against human HuH7 cells assessed as reduction in cell viability measured after 24 hrs by MTT assay; format: functional, cell-based; details: Huh-7, 24 h

Cc1ccc([C@H]2CC=CC(=O)O2)c2ccccc12
Activity [1]: Active
Activity [2]: Active
IC50 [3]: 10 µM
